In patent publication US5248771A, “Process for preparing no-carrier-added radiohalogenated vinyl nucleosides” (Triumf, priority 1991, dated 1993):
Read-outs that look alike come from different tables or passages of the source.

What was measured:
[1] = cited from earlier work
[2] = tested on: herpes infected tissue; details: S. Sacks, Abstract 97, 1988 Interscience Conference; cited from earlier work
[3] = cited from earlier work; remark: listed apart in the source
[4] = tested on: herpes virus; details: depending on the strain of herpes virus; cited from earlier work
[5] = tested on: HFF (Human Foreskin Fibroblast) cells; assay: [125I]IVaraU uptake into uninoculated HFF cells (control), gamma activity per tube; format: cell-based; details: 2.3×10^6 cpm/ml, 6 hours, 37° C.
Method: (§1) Upright roller tubes were seeded with 1.5×10^5 HFF (Human Foreskin Fibroblast) cells/tube in a volume of 1.0 ml of Minimal Essential Medium (MEM) with added 5% FCS (Fetal Calf Serum) and incubated at 37° C. overnight. The growth media was poured off and replaced with 1.0 ml of viral growth media (Med 199 Hank's salts with 2% FCS) containing ^125 I-IVaraU (2.3×10^6 cpm/ml). 100 μl of virus (diluted to appropriate concentration in viral growth media) was added to assay tubes. In this case, a multiplicity of infection of 1.0 was used. 100 μl of viral growth media was added to the control (viral uninoculated) tubes.
(§2) The tubes were centrifuged 5000 g×30 minutes at 37° C., incubated at 37° C., 5% CO2 for 6 hours, and the media was then poured off. The tubes were washed with 4×2 mls warm "cell" phosphate buffered saline (PBS), and 1.0 ml of trypsin-versene solution was added and the tubes were incubated at 37° C. for 5-10 minutes. The cell sheets were removed and transferred to 4 ml polystyrene tubes. The gamma activity was counted with a Gamma counter.

[6] = tested on: HSV1 strain KOS; assay: [125I]IVaraU uptake in rabbit brain infected with HSV1, gamma counts of brain blocks; format: in vivo, HSV1; New Zealand White rabbits
Method: The rabbit brains were infected with HSV1and then [^125 I]IVaraU was injected. The infection was located by assaying for herpes antigen and also by considering the brain anatomy involved. The assay was performed for [^125 I]IVaraU by gamma ray counts on segments cut from the brain.
INFECTION: Three New Zealand White female rabbits ([…], 2.5-5.0 kg) were anaesthetized by standard intramuscular injections of ketamine and xylazine. A 3.5 inch french tomcat catheter was introduced into the right nostril and 100 μL of the virus inoculation solution was released onto the right cribiform plate (this is a non-invasive means to create a brain infection). The virus inoculation solution consisted of 3.7×10^6 plaque forming units per mL HSV1 strain KOS suspended in commercial media of the type "199 with Hanks' salts". Two rabbits denoted "A" and "B" received the virus suspension exactly as described. A third rabbit denoted "C" was a "control"; it received 100 μL "199 with Hanks' salts" but no virus. The three rabbits were returned to their cages; infection was allowed to develop for 5 days before the injection of [^125 I]VaraU was carried out. INJECTION OF DRUG: 5 days following HSV1 inoculation, each rabbit was given 0.1 to 0.2 millicuries [^125 I]IVaraU suspended in 1 mL standard phosphate buffered saline PBS). The drug was administered by injection into the right marginal ear vein. SACRIFICE OF THE RABBITS: 24H after the [^125 I]IVaraU injection, the rabbits were sacrificed by an overdose of the drug Somnotol (T.M.) (MTC Pharmaceuticals). Following death, each rabbit was perfused with 300-400 mL PBS introduced into the ascending aorta. (The perfusion procedure served to remove blood from vessels in the brain and the body in general.)
The skull was dissected; the brain was cut out and removed. The brain was then sectioned into thirty 0.5 cm thick coronal blocks. The cutting and numbering of the blocks was carried out in a systematic way with respect to brain anatomy. Brain blocks were immersed and stored in 10% formalin. COUNTING OF ^125 I ACTIVITY IN BRAIN BLOCKS: Each block was weighed and then counted in a well-type gamma ray counter. The "counts per minute per gram" was calculated for each block of tissue for rabbits "A", "B" and "C". From each "cpm per gram" in infected rabbits "A" and "B" was subtracted the "cpm per gram" in the corresponding brain block from the uninfected rabbit "C". (The typical value of "cpm per gram" was about 20,000 cpm per gram in rabbit "C".)

[7] = tested on: HSV 1 infected cells; assay: uptake of [125I]IVaraU by HSV 1 infected cells compared with uninfected and HSV 2 infected cells; format: cell-based
Method: as §1
as §2, with “counter. […]” for “counter.”

[8] = tested on: HSV-1 (ATCC Strain F); assay: [125I]IVaraU uptake into HFF cells infected with HSV-1, gamma activity per tube; format: cell-based, HSV-1; HFF (Human Foreskin Fibroblast) cells; details: HSV-1 (ATCC Strain F) infected HFF cells, MOI 1.0, 2.3×10^6 cpm/ml, 6 hours, 37° C.
Method: as §1, §2

[9] = tested on: HSV-2 (ATCC Strain G); assay: [125I]IVaraU uptake into HFF cells infected with HSV-2, gamma activity per tube; format: cell-based, HSV-2; HFF (Human Foreskin Fibroblast) cells; details: HSV-2 (ATCC Strain G) infected HFF cells, MOI 1.0, 2.3×10^6 cpm/ml, 6 hours, 37° C.
Method: as §1, §2

[10] = tested on: herpes simplex virus 1 (HSV1); assay: in vivo; parameters: species or system HSV1; A/J mice
Text: (§3) This example measured the biodistribution of [^125 I]-IVaraU in the bodies of mice infected with HSV throughout the entire body. The brain was emphasized. Various uninfected controls were included to make the interpretation clear.
(§4) […] strain A/J mice were used in all: (i) with [^125 I]IVaraU, 20 mice received HSV1 and 20 mice were uninfected; and (ii) with [^125 I]NaI (a control compared to IVaraU), again 20 mice received HSV1 and 20 mice were uninfected.
(§5) INFECTION: Seven days prior to injection of the drug, each A/J mouse was inoculated by scratching the lip and applying a suspension of herpes simplex virus 1 (HSV1); this was the Kastrukoff murine-adapted strain of HSV1. This inoculation technique is a literature technique which has been established to cause herpes foci of herpes infection in the brains of over 99% of mice so inoculated. See Kastrukoff LF, Lau AS, and Puterman ML. J Gen Virol 67 (1986) 613-621. The HSV1 inoculation may be considered to take place at time "zero minus seven days". ADMINISTRATION OF THE RADIOPHARMACEUTICAL: The mice were divided into four experimental groups based on the two variables +/- HSV1, and IVaraU/NaI. The infected mice were being compared to non-infected mice. The radiopharmaceutical ([^125 I]IVaraU or [^125 I]NaI) was diluted to give 1μ Curie per 100 μL. 100 μL was then injected into the tailvein of each mouse. (Injection may be considered to take place at "time zero".) ANALYSIS OF INDIVIDUAL BODY ORGANS: At times 1h, 4h, 24h, and 48h, 5 mice were taken from each experimental group and sacrificed by exsanguination (the carotid artery was severed with a surgical scalpel). Blood was collected. Each animal was dissected, and the following organs were removed: brain, liver, kidney, pancreas, spleen, stomach, heart, lung, and muscle. Each organ or tissue specimen was weighed and then ^125 I activity was counted in a gamma ray counter. From the data weight, ^125 I, and ^125 I injected dose result values of "% dose per gram" were calculated for the different tissue specimens.

[11] = in vivo; parameters: species or system HSV1; A/J mice; details: mouse, in vivo, iv, 1 μCurie in 100 μL i.v. tail vein, read-out: brain uptake, % dose per gram in entire brain
Text: as §3, §4, §5

O=c1[nH]c(=O)n([C@@H]2O[C@H](CO)[C@@H](O)[C@@H]2O)cc1/C=C/F [FVaraU]
potency in vivo per unit weight [1]: less potent in vivo

O=c1[nH]c(=O)n([C@@H]2O[C@H](CO)[C@@H](O)[C@@H]2O)cc1/C=C/Cl [ClVaraU]
potency in vivo per unit weight [1]: less potent in vivo

O=c1[nH]c(=O)n([C@@H]2O[C@H](CO)[C@@H](O)[C@@H]2O)cc1/C=C/[123I] [[^123 I]IVaraU]
concentrated in herpes infected tissue [2]: concentrated in herpes infected tissue

O=c1[nH]c(=O)n([C@@H]2O[C@H](CO)[C@@H](O)[C@@H]2O)cc1/C=C/Br [BrVaraU, (E)-5(2 bromo vinyl)-arabinofuranosyl uracil]
metabolic stability in vivo [3]: appeared metabolically stable in vivo

O=c1[nH]c(=O)n([C@@H]2O[C@H](CO)[C@@H](O)[C@@H]2O)cc1/C=C/I [IVaraU]
potency in vivo per unit weight [1]: highly potent in vivo per unit weight
metabolic stability in vivo [3]: appeared metabolically stable in vivo
concentration effectively inhibiting herpes virus [4]: approximately 1×10^-9 g/mL

O=c1[nH]c(=O)n([C@@H]2O[C@H](CO)[C@@H](O)[C@@H]2O)cc1/C=C/[125I] [[^125 I]IVaraU]
Activity/Tube (Average) [5]: 1,332 cpm
(corrected) activities in brain regions ([6]; infected rabbits A and B minus uninfected C, forebrain): higher in the forebrain, especially in the olfactory lobes
activities towards the hindbrain ([6]; infected rabbits, corrected): approached background
activity in right olfactory lobe vs trigeminal ganglia and Level 1 ([6]; infected rabbits, corrected): higher than in the trigeminal ganglia and Level 1
activity in right vs left olfactory lobe ([6]; infected rabbits, corrected, virus given in right nostril): higher in the right olfactory lobe than the left
typical cpm per gram in brain blocks of uninfected rabbit C ([6]; uninfected rabbit "C", 24H after 0.1 to 0.2 millicuries i.v.): about 20,000 cpm per gram
uptake by HSV 1 vs HSV 2 infected cells ([7]; HSV 1 vs HSV 2 infected cells): HSV 1 infected cells took up more radio compound than HSV 2 infected cells
specific uptake by HSV 1 infected cells ([7]; vs uninfected cells): taken up specifically by HSV 1 infected cells, as compared with uninfected cells
Activity/Tube (Average) [8]: 59,914 cpm
Activity/Tube (Average) [9]: 14,462 cpm
brain uptake Ratio infected/uninfected ([10]; 1H): 1.18
brain uptake Ratio infected/uninfected ([10]; 4H): 1.57
brain uptake Ratio infected/uninfected ([10]; 24H): 15.8
brain uptake Ratio infected/uninfected ([10]; 48H): 36.2
tissue uptake at 1 h ([11]; Infected): 1.49 %ID/g
tissue uptake at 4 h ([11]; Infected): 0.36 %ID/g
tissue uptake at 24 h ([11]; Infected): 0.0379 %ID/g
tissue uptake at 48 h ([11]; Infected): 0.0181 %ID/g
tissue uptake at 1 h ([11]; Uninfected): 1.27 %ID/g
tissue uptake at 4 h ([11]; Uninfected): 0.229 %ID/g
tissue uptake at 24 h ([11]; Uninfected): 0.0024 %ID/g
tissue uptake at 48 h ([11]; Uninfected): 0.0005 %ID/g
